Data taken from ChEMBL document CHEMBL2407070, “Bioactive compounds from the roots of Strophioblachia fimbricalyx” (J Nat Prod, 2013).

What was measured:
MCF7 = test: cells; conditions: Homo sapiens
Description: Cytotoxicity against human MCF7 cells by SRB assay

NCI-H187 [1] = test: Cytotoxicity against human NCI-H187 cells; format: functional, cell-based
Plasmodium falciparum = test: Antiplasmodial activity against Plasmodium falciparum K1 after 42 hrs by microdilution method; format: functional, organism-based; conditions: K1, 42 h
Vero = test: Cytotoxicity against african green monkey Vero cells by SRB assay; format: functional, cell-based; conditions: Chlorocebus sabaeus
KB = test: Cytotoxicity against human KB cells by SRB assay; format: functional, cell-based
NCI-H187 [2] = test: Cytotoxicity against human NCI-H187 cells by SRB assay; format: functional, cell-based

| SMILES | IC50 (MCF7) | IC50 (NCI-H187 [1]) | IC50 (Plasmodium falciparum) | IC50 (Vero) | IC50 (KB) | IC50 (NCI-H187 [2]) |
| --- | --- | --- | --- | --- | --- | --- |
| COC1=Cc2c(cc(OC3=C4C(=CC(=O)C4(C)C)c4cc(OC)c(C)cc4C3=O)c3cc(C)c(OC)cc23)C(C)(C)C1=O | > 10 µM | 8.3 µM | 2.9 µM | > 10 µM | > 10 µM |  |
| COc1cc2c3c(cc(O)c2cc1C)C(C)(C)C(=O)[C@@]1(OC)Oc2c(cc4c(cc(OC)c5cc(C)c(OC)cc54)c2C)O[C@H]31 | > 10 µM |  | > 10 µM |  | > 10 µM | > 10 µM |
| O[C@@H](c1cc(C(F)(F)F)nc2c(C(F)(F)F)cccc12)[C@H]1CCCCN1 (relative stereo) [(S,R)-MEFLOQUINE] |  |  | 0.031 µM |  |  |  |
| COc1cc2c3c(cc(O)c2cc1C)C(C)(C)C(=O)OC3=O | > 10 µM |  | 3.9 µM | > 10 µM | > 10 µM | 5.7 µM |
| COC1=C2C(=CC(=O)C(O)=C2C)c2cc(OC)c(C)cc2C1=O | > 10 µM |  | 0.0193 µM | > 10 µM | > 10 µM | > 10 µM |
| Cc1c2ccncc2c(C)c2c1[nH]c1ccccc12 [ELLIPTECINE] |  |  |  | 1.19 µM | 1.19 µM | 1.16 µM |
| COc1cc2c3c(cc(O)c2cc1C)C(C)(C)C(=O)[C@]1(OC)Oc2c(cc4c(cc(OC)c5cc(C)c(OC)cc54)c2C)O[C@H]31 | > 10 µM |  | > 10 µM |  | > 10 µM | > 10 µM |
| COc1cccc2c1C(=O)c1c(O)c3c(c(O)c1C2=O)C[C@@](O)(C(=O)CO)C[C@@H]3O[C@H]1C[C@H](N)[C@H](O)[C@H](C)O1 [DOXORUBICIN] |  |  |  |  | 0.56 µM | 0.14 µM |
| C[C@H]1[C@@H](O)O[C@@H]2O[C@@]3(C)CC[C@H]4[C@H](C)CC[C@@H]1[C@@]24OO3 [ARTENIMOL] |  |  | 0.0025 µM |  |  |  |
| CC/C(=C(\c1ccccc1)c1ccc(OCCN(C)C)cc1)c1ccccc1 [TAMOXIFEN] | 5.19 µM |  |  |  |  |  |
| COc1cc2c3c(cc(OC)c2cc1C)C(C)(O)OC3=O (stereo not given) | > 10 µM |  | > 10 µM |  | > 10 µM | > 10 µM |
